Data set [1] has as its system A. fumigatus strain Afs77. Description: Short-term siderophore uptake analysis. Type of data set: cell-based, Aspergillus fumigatus. The following applies: pH 9, 45 min at 37 °C. The method, then: Short-term uptake of siderophore-complexed ^68Ga was analyzed as described previously. A. fumigatus strain Afs77 [25] was grown for 18 h at 37 °C in 100 mL Aspergillus minimal medium (AMM) according to Pontecorvo et. al. with 1% (w/v) glucose as the carbon source and 20 mM glutamine as the nitrogen source, using iron-free trace elements to induce iron limiting for the transcriptional activation of siderophore uptake. To generate iron-replete mycelia for the transcriptional downregulation of siderophore uptake, the growth medium contained an additional 0.03 mM FeSO4. For the analysis of the pH-dependent siderophore uptake, the pH of the fungal culture medium was adjusted with HCl (1 M) and NaOH (1 M) immediately before the uptake analyses. Uptake assays were performed with 180 µL of liquid A. fumigatus culture added to a prewetted 96-well MultiScreen Filter Plates HTS (1 μm glass fiber filter, Merck Millipore, Darmstadt, Germany). Then, 50 µL of radioactive labelled siderophores (~100 nM) were added to the culture and incubated for 45 min at 37 °C. After washing two times with ice-cold TRIS buffer, the dried filters were measured in a γ-counter.

The subject of data set [2] is A. fumigatus mutant strain (∆sidA/∆ftrA). Description: Siderophore utilization via growth promotion on solid minimal medium. It is filed as cell-based, Aspergillus fumigatus. The conditions noted are these: 0.1 µM iron-loaded siderophore, 48 h at 37 °C. The procedure:
Growth assays were performed on solid Aspergillus minimal medium (AMM), as described above, solidified with 1.8% (w/v) agar. The pH was adjusted with NaOH, and the medium was supplemented with the respective siderophore. The agar plates were point-inoculated with 10^4 spores per dot of ∆sidA∆ftrA [10] and incubated at 37 °C for 48 h.

Data set [3] has as its system pulmonary A. fumigatus infection. In words: Ex vivo biodistribution in A. fumigatus-infected rats. Set-up: species or system rat. The conditions noted are these: infected rats, 45 min p.i. The method, then:
A previously described rat model of pulmonary aspergillosis was used for the in vivo experiments. The introduction of A. fumigatus spores into animals, injection of radiolabeled siderophores and small animal imaging were carried out under 2% isoflurane anesthesia (FORANE, Abbott Laboratories, Abbott Park, IL, USA) to minimize animal suffering and prevent animal motion. Infection in the lung of immunodeficient rats was established by intratracheal inoculation of 100 μL of A. fumigatus spores (10^9 CFU/mL A. fumigatus ATCC 46645; American Type Culture Collection) using the TELE PACK VET X LED system equipped with a flexible endoscope (https://www.karlstorz.com/cps/rde/xbcr/karlstorz_assets/ASSETS/3386919.pdf, accessed on 20 August 2021; Karl Storz GmbH & Co. KG, Tuttlingen, Germany). Depending on the development of the infection, experimental animals underwent an ex vivo biodistribution study or PET/CT imaging, typically 2–4 days after inoculation.
A. fumigatus-infected rats were retro-orbitally (r.o.) injected with [^67Ga]- and [^68Ga]Ga-DFO-B and DFO-E. One infected rat (rat 1) was injected with [^68Ga]Ga-DFO-B and [^67Ga]Ga-DFO-E, while the second rat (rat 2) was […] with [^67Ga]Ga-DFO-B and [^68Ga]Ga-DFO-E (~0.5 MBq and ~0.5 µg of each DFO-B and DFO-E per rat). Rats were sacrificed by exsanguination 45 min post-injection (p.i.). Organs and tissues of interest (blood, spleen, pancreas, kidneys, liver, heart, muscle and lung) were removed and weighed. The amount of radioactivity in the samples was measured in a γ-counter (2480 Wizard-2; Perkin Elmer, Waltham, MA, USA). First, a short-lived ^68Ga was measured immediately after organ removal in the 511 ± 100 keV energy window, and ^67Ga was measured after 24 h in the 185 ± 100 keV energy window. The results are expressed as percentage of injected dose per gram of organ (%ID/g).

In another data set the test system is A. fumigatus. The conditions noted are these: cited from earlier work.
Another data set concerns Rhizopus arrhizus. Set-up: method as in PMID 23818006. The conditions noted are these: cited from earlier work.
For a further data set, the system named is Staphylococcus aureus. The following applies: cited from earlier work.
The next data set has as its system Klebsiella pneumoniae. The conditions noted are these: cited from earlier work.
The test system of the next data set is Pseudomonas aeruginosa. The conditions noted are these: cited from earlier work.
For a further data set, the system named is Mycobacterium smegmatis. The arrangement: method as in PMID 23818006. The following applies: cited from earlier work.
The next data set deals with Aspergillus flavus. Set-up: method as in PMID 23818006. The conditions noted are these: cited from earlier work.
For a further data set, the system named is Candida albicans. The arrangement: method as in PMID 23818006. The conditions noted are these: cited from earlier work.
The subject of another data set is Aspergillus terreus. The arrangement: method as in PMID 23818006. The conditions noted are these: cited from earlier work.

Consider `CC(=O)N([O-])CCCCCNC(=O)CCC(=O)N([O-])CCCCCNC(=O)CCC(=O)N([O-])CCCCCNC(=O)CCC(=O)O.[68Ga+3]` [[^68Ga]Ga-DFO-B^suc], for which the “uptake efficacy (in words)” value in data set [1] is on record as “highly decreased uptake efficacy”.
On to `O=C1CCC(=O)N([O-])CCCCCNC(=O)CCC(=O)N([O-])CCCCCNC(=O)CCC(=O)N([O-])CCCCCN1.[Fe+3]` [Fe-DFO-E], for which the growth promotion activity result in data set [2] (pH 5 (acidic)), in data set [2] (pH 7 (neutral)) and in data set [2] (pH 9 (alkaline)) was “promoted the growth” each time.
`CC(=O)N([O-])CCCCCNC(=O)CCC(=O)N([O-])CCCCCNC(=O)CCC(=O)N([O-])CCCCCN.[67Ga+3]` [[^67Ga]Ga-DFO-B]: in data set [3], the “radioactivity accumulation in non-infected organs (blood, spleen, pancreas, liver, heart and muscle)” value was “low radioactivity accumulation”; the route of excretion result is “primary excretion via kidneys”.
With `CC(=O)N([O-])CCCCCNC(=O)CCC(=O)N([O-])CCCCCNC(=O)CCC(=O)N([O-])CCCCCN.[Fe+3]` [Fe-DFO-B], the growth promotion activity entry is given as “rescued the growth promotion” in data set [2] (pH 5 (acidic), listed as Fe-DFO-B^ac); “promoted growth” in data set [2] (pH 7 (neutral)); “promoted growth” in data set [2] (pH 9 (alkaline)).
On to `O=C1CCC(=O)N([O-])CCCCCNC(=O)CCC(=O)N([O-])CCCCCNC(=O)CCC(=O)N([O-])CCCCCN1.[67Ga+3]` [[^67Ga]Ga-DFO-E], for which, in data set [3], the “radioactivity accumulation in non-infected organs (blood, spleen, pancreas, liver, heart and muscle)” value is “low radioactivity accumulation”; the route of excretion entry is “primary excretion via kidneys”. Also, the “uptake in the infected lungs as compared with radiolabeled DFO-B in the same rat” value in data set [3] (co-injection) is on record as “only slightly higher uptake”.
Take `CC(=O)N([O-])CCCCCNC(=O)CCC(=O)N([O-])CCCCCNC(=O)CCC(=O)N([O-])CCCCCNC(=O)CCC(=O)O.[Fe+3]` [Fe-DFO-B^suc]: the growth promotion activity result in data set [2] (pH 9 (alkaline)) is given as “lowest growth promotion activity”.
Consider `CC(=O)N(O)CCCCCNC(=O)CCC(=O)N(O)CCCCCNC(=O)CCC(=O)N(O)CCCCCN` [DFO-B, desferrioxamine B], for which the “in vitro uptake compared to the TAFC and DFO-E metal complexes” value in the data set with A. fumigatus is “significantly lower in vitro uptake”.
Regarding `CC(=O)N[C@H]1CCCN2[O][Ga]3[O]N(CCC[C@H](NC(C)=O)C(=O)OCC/C(C)=C/C(=O)N(CCC[C@H](NC(C)=O)C(=O)OCC/C(C)=C/C2=O)[O]3)C(=O)/C=C(\C)CCOC1=O` [[^68Ga]Ga-TAFC], the in vitro uptake entry in the data set with Rhizopus arrhizus is reported as “uptake”; in the data set with Staphylococcus aureus, “no significant uptake”; with Klebsiella pneumoniae, “no significant uptake”; in the data set on Pseudomonas aeruginosa, “no significant uptake”; in the data set with Mycobacterium smegmatis, “no significant uptake”; with Aspergillus flavus it was “no significant uptake”. Moreover, the figures for the in vitro uptake result in the data set with A. fumigatus, in the data set on Candida albicans and in the data set on Aspergillus terreus were “uptake”, “no significant uptake” and “no significant uptake”, respectively.

Source of the values: PMC8472378, “Desferrioxamine B-Mediated Pre-Clinical In Vivo Imaging of Infection by the Mold Fungus Aspergillus fumigatus” (Journal of Fungi, 2021).
